# Reference: patent US11839613B2, “Pyrimidine derivatives as PGE2 receptor modulators” (IDORSIA PHARMACEUTICALS LTD, priority 2017, dated 2023)
# Assays:
# PTGER4 (EP4) = PTGER4 (EP4) (Homo sapiens (Human), UniProt P35408); assay: cell-based
# EP2 = EP2 (Homo sapiens (Human), UniProt P43116); assay: hEP2 cAMP assay (SF295 glioblastoma cells, HTRF cAMP); assay type: cell-based; conditions: antagonistic activity
# Text: (§1) Human tumor cell lines expressing endogenously either EP4 or EP2 are used and cAMP accumulation in cells upon PGE2 stimulation is monitored. SF295 glioblastoma cells express high endogenous EP2 and no EP4, whereas BT549 breast cancer cells, express high endogenous EP4 levels and very low EP2 levels.
# (§2) As a detection method for cAMP the HTRF (homogeneous time resolved fluorescence) Cisbio kit (HTRF cAMP dynamic 2 kit 20'000 tests Cisbio Cat. #62AM4PEC) was used, which is based on a competitive immunoassay using a Cryptate-labeled anti-cAMP antibody and d2-labeled cAMP. Native cAMP produced by cells or unlabeled cAMP (for the standard curve) compete with exogenously added d2-labeled cAMP (acceptor) for binding to monoclonal anti-cAMP-Eu3+Cryptate (donor). A FRET signal (Fluorescence Resonance Energy Transfer) is obtained only if the labeled anti-cAMP antibody binds the d2 labelled cAMP, thus the specific signal (i.e. energy transfer) is inversely proportional to the concentration of cAMP in the standard or sample.
# (§3) Cells are counted washed and resuspended in assay buffer (AB; HBSS, 20 mM HEPES, 0.2% BSA; 2 mM IBMX).
# Plate is pre-incubated 45 minutes at RT. […] Plate is incubated 30 minutes at RT.
# EP4 = EP4 (Homo sapiens (Human), UniProt P35408); assay: hEP4 cAMP assay (BT549 breast cancer cells, HTRF cAMP); assay type: cell-based; conditions: antagonistic activity, PGE2 6 nM
# Sequence of EP4 (P35408 whole entry): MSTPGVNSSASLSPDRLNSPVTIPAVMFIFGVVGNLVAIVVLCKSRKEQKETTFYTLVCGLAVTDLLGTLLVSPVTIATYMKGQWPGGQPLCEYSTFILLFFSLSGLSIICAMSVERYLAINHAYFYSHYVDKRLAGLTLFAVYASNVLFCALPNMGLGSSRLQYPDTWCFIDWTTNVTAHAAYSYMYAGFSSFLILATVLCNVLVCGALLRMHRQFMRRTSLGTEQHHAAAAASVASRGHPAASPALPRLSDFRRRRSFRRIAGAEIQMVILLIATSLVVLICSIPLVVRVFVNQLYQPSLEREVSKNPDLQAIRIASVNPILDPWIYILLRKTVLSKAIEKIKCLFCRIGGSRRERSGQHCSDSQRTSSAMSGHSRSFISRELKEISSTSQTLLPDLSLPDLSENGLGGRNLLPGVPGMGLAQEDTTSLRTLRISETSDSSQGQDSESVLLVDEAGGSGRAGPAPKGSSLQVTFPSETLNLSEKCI
# Text: as §1, §2, §3
# Plate is pre-incubated 45 minutes at RT. Subsequently, 2.5 microliters of PGE2 (final conc. 6 nM) are transferred into the assay plate. Plate is incubated 30 minutes at RT.
# PTGER2 (EP2) = PTGER2 (EP2) (Homo sapiens (Human), UniProt P43116); assay: hEP2 b-arrestin assay (PathHunter HEK 293 PTGER2 b-arrestin cells); assay type: cell-based; conditions: antagonistic activity, beta-arrestin assay; read-out: hEP2 b-arr IC50
# Sequence of PTGER2 (EP2) (P43116 whole entry): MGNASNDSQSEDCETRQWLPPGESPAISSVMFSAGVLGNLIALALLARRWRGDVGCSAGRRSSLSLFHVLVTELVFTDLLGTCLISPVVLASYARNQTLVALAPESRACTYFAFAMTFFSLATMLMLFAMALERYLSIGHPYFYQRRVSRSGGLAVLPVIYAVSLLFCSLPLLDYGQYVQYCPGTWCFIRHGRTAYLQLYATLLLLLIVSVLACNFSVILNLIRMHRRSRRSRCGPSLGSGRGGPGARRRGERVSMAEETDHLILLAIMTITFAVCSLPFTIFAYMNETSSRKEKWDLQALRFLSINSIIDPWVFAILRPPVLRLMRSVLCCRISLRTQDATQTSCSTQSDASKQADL
# Experimental: Plate is pre-incubated 15 minutes at 37° C. Then five microliters of PGE2 (final conc. 5 μM) are transferred into the assay plate. Plate is incubated 120 minutes at 37° C.
# (each concentration is measured in duplicate)
# Sequence of PTGER4 (EP4) (P35408 whole entry): as the sequence (P35408 whole entry) above
# Sequence of EP2 (P43116 whole entry): as the sequence (P43116 whole entry) above
SMILES,IC50 (PTGER4 (EP4)),IC50 (EP2),IC50 (EP4),IC50 (PTGER2 (EP2))
"CCOc1cc(-c2cc(NCCc3cc4c(cc3OC)OCCCO4)ncn2)sc1C(=O)O [Ex 21, 3-Ethoxy-5-{6-[2-(8-methoxy-3,4-dihydro-2H-benzo[b][1,4]dioxepin-7-yl)-ethylamino]-pyrimidin-4-yl}-thiophene-2-carboxylic acid]",58 nM,912 nM,12 nM,
"CCOc1cc(-c2cc(NCCc3ccc4ccccc4c3)ncn2)sc1C(=O)O [Ex 36, 3-Ethoxy-5-[6-(2-naphthalen-2-yl-ethylamino)-pyrimidin-4-yl]-thiophene-2-carboxylic acid]",20 nM,557 nM,18 nM,
"CCOc1cc(-c2cc(NCCc3ccc4c(c3)CCC4)ncn2)sc1C(=O)O [Ex 44, 3-Ethoxy-5-[6-(2-indan-5-yl-ethylamino)-pyrimidin-4-yl]-thiophene-2-carboxylic acid]",24 nM,283 nM,21 nM,
"CCOc1cc(-c2cc(NCCc3cc4c(cc3OC)CCCC4)ncn2)sc1C(=O)O [Ex 60, 3-Ethoxy-5-{6-[2-(3-methoxy-5,6,7,8-tetrahydro-naphthalen-2-yl)-ethylamino]-pyrimidin-4-yl}-thiophene-2-carboxylic acid]",3 nM,320 nM,31 nM,
"CCOc1cc(-c2cc(NCCc3cc4ccccc4cc3Cl)ncn2)sc1C(=O)O [Ex 62, 5-{6-[2-(3-Chloro-naphthalen-2-yl)-ethylamino]-pyrimidin-4-yl}-3-ethoxy-thiophene-2-carboxylic acid]",16 nM,301 nM,32 nM,
"CCOc1cc(-c2cc(NCCc3ccc4c(ccn4C)c3)ncn2)sc1C(=O)O [Ex 65, 3-Ethoxy-5-{6-[2-(1-methyl-1H-indol-5-yl)-ethylamino]-pyrimidin-4-yl}-thiophene-2-carboxylic acid]",33 nM,304 nM,35 nM,
"CSc1cc2c(cc1CCNc1cc(-c3ccc(C(=O)O)c(OC4CCC4)c3)ncn1)OCCO2 [Ex 70, 2-Cyclobutoxy-4-{6-[2-(7-methylsulfanyl-2,3-dihydro-benzo[1,4]dioxin-6-yl)-ethylamino]-pyrimidin-4-yl}-benzoic acid]",209 nM,441 nM,38 nM,
"CN1CCCc2cc(CCNc3cc(-c4cc(C(F)(F)F)c(C(=O)O)s4)ncn3)c(F)cc21 [Ex 72, 5-{6-[2-(7-Fluoro-1-methyl-1,2,3,4-tetrahydro-quinolin-6-yl)-ethylamino]-pyrimidin-4-yl}-3-trifluoromethyl-thiophene-2-carboxylic acid]",37 nM,892 nM,39 nM,
"CCOc1cc(-c2cc(NCCc3cc4ccccc4cc3OC)ncn2)ccc1OCC(=O)O [Ex 122, (2-Ethoxy-4-{6-[2-(3-methoxy-naphthalen-2-yl)-ethylamino]-pyrimidin-4-yl}-phenoxy)-acetic acid]",19 nM,324 nM,95 nM,
CCOc1cc(-c2cc(NCCc3ccc4c(c3)c(C)cn4C)ncn2)sc1C(=O)O [Ex 133],42 nM,482 nM,109 nM,
CCOc1cc(-c2cc(NCCc3ccc4ccccc4c3F)ncn2)ccc1OCC(=O)O [Ex 136],29 nM,677 nM,120 nM,
"CSc1cc(-c2cc(NCCc3cc4ccoc4cc3F)ncn2)ccc1C(=O)O [Ex 238, 4-{6-[2-(6-Fluoro-benzofuran-5-yl)-ethylamino]-pyrimidin-4-yl}-2-methylsulfanyl-benzoic acid]",,75 nM,343 nM,55 nM
Cn1[nH]c(=O)c2ccc(-c3cc(NCCc4ccc5cc[nH]c5c4)ncn3)cc21 [Ex 249],,171 nM,368 nM,196 nM
"O=C(O)c1ccc(-c2cc(NCCc3ccc4cc[nH]c4c3)ncn2)cc1OC1CCC1 [Ex 278, 2-Cyclobutoxy-4-{6-[2-(1H-indol-6-yl)-ethylamino]-pyrimidin-4-yl}-benzoic acid]",,187 nM,477 nM,281 nM
"CCOc1cc(-c2cc(NCCc3cc4c(cc3OC)OCO4)ncn2)ccc1C(=O)O [Ex 315, 2-Ethoxy-4-{6-[2-(6-methoxy-benzo[1,3]dioxol-5-yl)-ethylamino]-pyrimidin-4-yl}-benzoic acid]",,73 nM,703 nM,134 nM
CCOc1cc(-c2cc(NCCc3cc4c(cc3C)OCCO4)ncn2)ccc1C(=O)O [Ex 327],,159 nM,920 nM,296 nM

# The remaining molecules from weak to strong by IC50 (EP2), led by results:
IC50 (PTGER4 (EP4)),IC50 (EP2),IC50 (EP4),IC50 (PTGER2 (EP2)),SMILES
13 nM,9390 nM,30 nM,,"CCOc1cc(-c2cc(NCCc3ccc4c(c3)OCCC4)ncn2)sc1C(=O)O [Ex 58, 5-[6-(2-Chroman-7-yl-ethylamino)-pyrimidin-4-yl]-3-ethoxy-thiophene-2-carboxylic acid]"
22 nM,787 nM,128 nM,,CCOc1cc(-c2cc(NCCc3cc4c(cc3OC)CCCC4)ncn2)ccc1OCC(=O)O [Ex 143]
353 nM,588 nM,97 nM,,"Fc1cc2ncccc2c(F)c1CCNc1cc(-c2ccc3ncccc3c2)ncn1 [Ex 123, [2-(5,7-Difluoro-quinolin-6-yl)-ethyl]-(6-quinolin-6-yl-pyrimidin-4-yl)-amine]"
90 nM,519 nM,134 nM,,CCOc1cc(-c2cc(NCCc3cc4c(cc3SC)OCCO4)ncn2)ccc1OCC(=O)O [Ex 145]
23 nM,423 nM,106 nM,,CCOc1cc(-c2cc(NCCc3ccc4ccccc4c3C)ncn2)sc1/C=C/C(=O)O [Ex 130]
26 nM,378 nM,55 nM,,"CCOc1cc(-c2cc(NCCc3ccc4ccccc4c3Cl)ncn2)sc1C(=O)O [Ex 90, 5-{6-[2-(1-Chloro-naphthalen-2-yl)-ethylamino]-pyrimidin-4-yl}-3-ethoxy-thiophene-2-carboxylic acid]"
,332 nM,887 nM,441 nM,CCOc1cc(-c2cc(NCCc3cc4c(cc3OC(F)F)OCO4)ncn2)ccc1C(=O)O [Ex 325]
24 nM,301 nM,39 nM,,"CCOc1cc(-c2cc(NCCc3ccc4ccccc4c3N)ncn2)sc1C(=O)O [Ex 71, 5-{6-[2-(1-Amino-naphthalen-2-yl)-ethylamino]-pyrimidin-4-yl}-3-ethoxy-thiophene-2-carboxylic acid]"
13 nM,277 nM,7 nM,,"CCOc1cc(-c2cc(NCCc3ccc4ccccc4c3F)ncn2)sc1C(=O)O [Ex 11, 3-Ethoxy-5-{6-[2-(1-fluoro-naphthalen-2-yl)-ethylamino]-pyrimidin-4-yl}-thiophene-2-carboxylic acid]"
,249 nM,1040 nM,158 nM,"Fc1cc2ncccc2c(F)c1CCNc1cc(-c2ccc3[nH]ccc3c2)ncn1 [Ex 330, [2-(5,7-Difluoro-quinolin-6-yl)-ethyl]-[6-(1H-indol-5-yl)-pyrimidin-4-yl]-amine]"
,247 nM,753 nM,408 nM,"Fc1cc2ncccc2c(F)c1CCNc1cc(-c2ccc3cnccc3c2)ncn1 [Ex 318, [2-(5,7-Difluoro-quinolin-6-yl)-ethyl]-(6-isoquinolin-6-yl-pyrimidin-4-yl)-amine]"
,222 nM,346 nM,134 nM,CCOc1cc(-c2cc(NCCc3cc4c(cc3OC)OCO4)ncn2)ccc1OCC(=O)O [Ex 239]
,147 nM,327 nM,121 nM,CCOc1cc(-c2cc(NCCc3cc4ccoc4cc3F)ncn2)ccc1OC(C)C(=O)O (stereo not drawn) [Ex 236]
,132 nM,369 nM,105 nM,CCOc1cc(-c2cc(NCCc3cc4c(cnn4C)cc3OC)ncn2)sc1C(=O)O [Ex 251]
,102 nM,468 nM,67 nM,CCSc1cc(-c2cc(NCCc3cc4ccoc4cc3F)ncn2)ccc1C(=O)O [Ex 275]
,86 nM,515 nM,198 nM,CCOc1cc(-c2cc(NCCc3cc4c(cc3OC)OCCO4)ncn2)ccc1C(=O)O [Ex 286]
,85 nM,523 nM,156 nM,Cc1cc2c(cc1CCNc1cc(-c3ccc(C(=O)O)c(OC4CCC4)c3)ncn1)OC=CO2 [Ex 288]
,76 nM,322 nM,29 nM,"CCOc1cc(-c2cc(NCCc3cc4ccoc4cc3OC)ncn2)ccc1OC(C)C(=O)O (stereo not drawn) [Ex 233, 2-(2-Ethoxy-4-{6-[2-(6-methoxy-benzofuran-5-yl)-ethylamino]-pyrimidin-4-yl}-phenoxy)-propionic acid]"
1 nM,26 nM,2 nM,,"CCOc1cc(-c2cc(NCCc3c(OC)cc4ccccc4c3F)ncn2)sc1C(=O)O [Ex 3, 3-Ethoxy-5-{6-[2-(1-fluoro-3-methoxy-naphthalen-2-yl)-ethylamino]-pyrimidin-4-yl}-thiophene-2-carboxylic acid]"
